This is an account of results in PubChem BioAssay (NCI).

Some test systems named below: A498 renal; T-47D breast; MOLT-4 leukemia; HCC-2998 colon; HL-60(TB) leukemia; CCRF-CEM leukemia; SK-OV-3 ovarian; UACC-257 melanoma; SR leukemia; DU-145 prostate; SF-539 CNS; M14 melanoma; HOP-62 NSCLC; HT29 colon.
What all share (test): NCI anticancer screen, dose series, 48 h

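Growth conditions: 96-well plates. Treatment: test compound, 48 hours, 5 concentrations. Analysis: linear interpolation between bracketing concentrations; unreached endpoints set to highest concentration. At the TGI there is no net growth.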

For `CC(C)(C)NC(=O)CCC1C(C(=O)NC(C)(C)C)C2(Cl)C(Cl)=C(Cl)C1(Cl)C2(Cl)Cl` (centres undefined), the TGI in the assay on A498 renal, with T-47D breast, in the assay on MOLT-4 leukemia, in the assay on HCC-2998 colon, in the assay on HL-60(TB) leukemia and with CCRF-CEM leukemia was greater than 100 µM throughout. For the same molecule, the TGI in the assay on SK-OV-3 ovarian, in the assay on UACC-257 melanoma, with SR leukemia, with DU-145 prostate, with SF-539 CNS and with M14 melanoma was greater than 100 µM throughout. Besides, the TGI in the assay with HOP-62 NSCLC and with HT29 colon was greater than 100 µM in each case.
As to `CN(C)CCc1c2c(nc3ccccc13)C(=O)c1cccnc1C2=O`, the TGI was determined as 1.72 µM in the assay on A498 renal; 10.6 µM in the assay with T-47D breast; 6.71 µM in the assay with MOLT-4 leukemia; 2.71 µM in the assay on HCC-2998 colon; 0.365 µM in the assay with HL-60(TB) leukemia; 4.85 µM in the assay on CCRF-CEM leukemia. In addition, the TGI in the assay with SK-OV-3 ovarian is 2.52 µM; in the assay with UACC-257 melanoma it was 1.03 µM; in the assay on SR leukemia it was 0.144 µM; in the assay with DU-145 prostate, 1.22 µM; in the assay on SF-539 CNS, 0.671 µM; in the assay on M14 melanoma, 0.4 µM. Moreover, in the assay on HT29 colon, the TGI was 8.35 µM.
For the molecule `N#Cc1nc(C#N)n(S(=O)(=O)c2ccccc2)c1NS(=O)(=O)c1ccccc1`, the TGI with A498 renal, in the assay on T-47D breast, in the assay with MOLT-4 leukemia, with HCC-2998 colon, in the assay with HL-60(TB) leukemia and in the assay with CCRF-CEM leukemia was greater than 100 µM each time. For the same molecule, the TGI with SK-OV-3 ovarian, with UACC-257 melanoma, with SR leukemia, in the assay with DU-145 prostate, in the assay with SF-539 CNS and with M14 melanoma was greater than 100 µM in each case. Besides, the TGI in the assay with HOP-62 NSCLC and in the assay with HT29 colon was greater than 100 µM in each case.
In the case of `O=c1[nH]nc(-c2ccccc2)n1O`, the TGI in the assay with A498 renal, in the assay on T-47D breast, in the assay with MOLT-4 leukemia, with HCC-2998 colon, in the assay on HL-60(TB) leukemia and with CCRF-CEM leukemia was greater than 100 µM throughout. Further, the TGI in the assay on SK-OV-3 ovarian, with UACC-257 melanoma, in the assay with SR leukemia, in the assay with DU-145 prostate, in the assay with SF-539 CNS and in the assay on M14 melanoma was greater than 100 µM in each case. In addition, the TGI with HOP-62 NSCLC and with HT29 colon was greater than 100 µM throughout.
As for `N#C/C(C(=S)NCc1ccccc1)=C(/N)N1CCCC1`, the TGI in the assay with A498 renal, in the assay with T-47D breast, in the assay with MOLT-4 leukemia, in the assay on HCC-2998 colon, in the assay with HL-60(TB) leukemia and in the assay with CCRF-CEM leukemia was greater than 100 µM in each case. Moreover, the TGI in the assay with SK-OV-3 ovarian, with UACC-257 melanoma, with SR leukemia, in the assay with DU-145 prostate, in the assay on SF-539 CNS and with M14 melanoma was greater than 100 µM each time. The TGI with HOP-62 NSCLC and with HT29 colon was greater than 100 µM each time.
Take `CC(C)(CCC(C)(C)N1OC1c1ccccc1)N1OC1c1ccccc1` (centres undefined): the TGI with A498 renal was greater than 100 µM; in the assay with T-47D breast, greater than 100 µM; in the assay on HCC-2998 colon it was greater than 100 µM; in the assay with HL-60(TB) leukemia, 44.3 µM; in the assay on CCRF-CEM leukemia it was 35 µM; in the assay with SK-OV-3 ovarian it was greater than 100 µM. Moreover, the TGI was greater than 100 µM in the assay on UACC-257 melanoma; 40.3 µM in the assay on SR leukemia; greater than 100 µM with DU-145 prostate; greater than 100 µM in the assay on SF-539 CNS; greater than 100 µM in the assay on HT29 colon.
In the case of `O=C1Cc2c([nH]c3ccc(C(=O)O)cc23)-c2ccccc2N1`, the TGI in the assay with A498 renal, with T-47D breast, in the assay on MOLT-4 leukemia, in the assay on HCC-2998 colon, with HL-60(TB) leukemia and with CCRF-CEM leukemia was greater than 100 µM each time. For the same molecule, the TGI in the assay on SK-OV-3 ovarian, with UACC-257 melanoma, in the assay on SR leukemia, in the assay on DU-145 prostate, in the assay with SF-539 CNS and in the assay on M14 melanoma was greater than 100 µM throughout. For the same molecule, the TGI with HOP-62 NSCLC and in the assay with HT29 colon was greater than 100 µM each time.
For `CN(CCCNC(=O)c1cc(-c2ccccc2)nc2ccccc12)CCCNC(=O)c1cc(-c2ccccc2)nc2ccccc12`, the TGI amounted to 10.1 µM in the assay on A498 renal; 9.92 µM in the assay with T-47D breast; 5.33 µM with MOLT-4 leukemia; 3.36 µM in the assay on HCC-2998 colon; 4.7 µM with HL-60(TB) leukemia; 17.6 µM in the assay on CCRF-CEM leukemia. Besides, the TGI with SK-OV-3 ovarian amounted to 26.2 µM; in the assay with UACC-257 melanoma, 3.34 µM; in the assay with SR leukemia, 12.3 µM; with DU-145 prostate it was 9.49 µM; with SF-539 CNS, 4.67 µM; with M14 melanoma, 3.17 µM. Further, the TGI with HOP-62 NSCLC is 4.13 µM; in the assay on HT29 colon, 3.46 µM.
Regarding `Nc1ccc(Nc2cc(=O)[nH]c(=O)[nH]2)cc1Cl`, the TGI in the assay on A498 renal, in the assay on T-47D breast, in the assay with MOLT-4 leukemia, in the assay on HCC-2998 colon, in the assay on HL-60(TB) leukemia and with CCRF-CEM leukemia was greater than 100 µM in each case. Moreover, the TGI in the assay with SK-OV-3 ovarian, in the assay on UACC-257 melanoma, in the assay with SR leukemia, in the assay with DU-145 prostate, with SF-539 CNS and in the assay on M14 melanoma was greater than 100 µM each time. This molecule also registered a TGI in the assay with HT29 colon greater than 100 µM.
With `CN=C(Nc1cccc(C(F)(F)F)c1)SCc1ccc(N=C=S)cc1`, the TGI with A498 renal is 34.6 µM; in the assay with T-47D breast, 29.9 µM; in the assay with MOLT-4 leukemia, 36 µM; in the assay with HCC-2998 colon it was 29 µM; with HL-60(TB) leukemia, greater than 100 µM; in the assay with CCRF-CEM leukemia, greater than 100 µM. Besides, the TGI in the assay on SK-OV-3 ovarian is 34.5 µM; in the assay on UACC-257 melanoma it was 27.3 µM; in the assay with SR leukemia, 40.4 µM; in the assay on DU-145 prostate, 31.2 µM; in the assay with SF-539 CNS it was 31.5 µM; in the assay on HOP-62 NSCLC it was 31.7 µM. Also, the TGI with HT29 colon was determined as 31.2 µM.
